These results are taken from ChEMBL document CHEMBL1121951, “Synthesis and evaluation of N-(phenylalkyl)acetohydroxamic acids as potential substrates for N-arylhydroxamic acid N,O-acyltransferase” (1982).

Molecules are shown by their SMILES. Activity calls are given as the source filed them. The calls are words filed in the database; no cut-off is given here.

The species named for assay [1] is Cricetulus griseus. The assay is described as follows: Effect of the compound on hamster hepatic N-arylhydroxamic acid N,O-acyltransferase activity.
The species entered for another assay is Rattus norvegicus. Nature of the assay: Transacetylation rate in rat hepatic AHAT preparation. In kind it is functional.
Assay [2] deals with Cricetinae gen. sp. Nature of the assay: Effect for methylthio adduct formation in presence of 0.1 mM N-hydroxy-4-aminobiphenyl and 10 mM N-acetylmethioninein hamster hepatic AHAT preparation at 30 min. Format: functional, Cricetulus griseus.
A short description of assay [3]: AHAT-catalyzed transacetylation rate at 0.5-1.0 concentration. In kind it is functional.
Assay [4] is described as follows: Compound inhibit the AHAT-catalyzed transacetylation activity; Active. Format: functional.
Assay [5] relates to Cricetinae gen. sp. The assay is described as follows: Transacetylation rate in hamster hepatic AHAT preparation. In kind it is functional, Cricetulus griseus.
Assay [6] is filed under the species Cricetulus griseus. Nature of the assay: Effect of the compound on hamster hepatic N,O-acyltransferase (AHAT) activity. Format: functional.
The nature of assay [7]: Effect for methylthio adduct formation at 1 mM concentration. In kind it is functional.
Assay [8] is described as follows: Effect for methylthio adduct formation at 2 mM concentration. In kind it is functional.
Assay [9] in a line: AHAT-catalyzed transacetylation rate at 0.5-1.0 concentration; No effect. Format: functional.

In the assay filed under Cricetulus griseus [1], `CC(=O)N(O)Cc1ccccc1` had an Activity below 1%.
Turning to `CC(=O)N(O)CCCCc1ccccc1`, the Activity in the assay filed under Cricetulus griseus [1] is below 1%; in the assay filed under Rattus norvegicus it was 0.73 nmol/mg/min.
On to `CC(=O)N(O)c1ccc(-c2ccccc2)cc1`, for which the Activity was 120 nM with Cricetinae gen. sp. [2], 4.99 nM/min in the assay filed under Rattus norvegicus, 10% in assay [3] and 9.14 nM/min in the assay on Cricetinae gen. sp. [5]. Further, the outcome in assay [4] was Active.
In the assay filed under Cricetulus griseus [6], `CC(=O)N(O)CCc1ccccc1` came in with an Activity below 1%. In addition, the results for the Reduction in assay [7] and in assay [8] were 8% and 17%, respectively.
For `CC(=O)N(O)C1CCC(c2ccccc2)CC1` (stereo unspecified), in [9], the outcome was inactive. The same molecule had an Activity in the assay filed under Cricetulus griseus [1] below 1%. The Reduction was determined as 13% in assay [7] and 23% in assay [8].
For the molecule `CC(=O)N(O)CCCc1ccccc1`, in the assay filed under Cricetulus griseus [1], the Activity was below 1%.
